According to patent US20210267944A1 (BioXcel Therapeutics, Inc., priority 2018, published 2021):
Where “and” joins values, the source holds several entries; their conditions need not be identical. Equal values may be shown once. Entries after “also recorded” stand apart in the source; their conditions may differ. Where a name gives a salt, the structure may show the parent alone. Read-outs that look alike come from different tables or passages of the source.

Experiments:
clinical [1] = details: human, plasma, iv, Plasma concentrations, individual opioid withdrawal patients, IV infusion
clinical [2] = details: human, in vivo; for concentration at 15 min / concentration at 30 min / concentration at 90 min / concentration at 45 min / concentration at 60 min / concentration at 75 min: Plasma level concentration
[3] = schizophrenia study, one subject
Method: Adverse events (AEs), including serious adverse events (SAEs), were assessed, recorded, and reported in accordance with FDA guidance. Should any SAE occur, the study would be stopped until a cause for the SAE was determined.

[4] = test system: healthy, elderly (55-75 years of age) volunteers
Method: Subjects in the initial cohorts were initially healthy, elderly (55-75 years of age) volunteers. Subjects in later cohort were elderly volunteers healthy except for having mild probable SDAT. Both sexes were included in all cohorts.
Each infusion rate was administered for 30 minutes. After 30 minutes, the dose was increased by an additional 0.1 mcg/kg/hr until the subject achieved a predetermined level of sedation as assessed by the Richmond Agitation-Sedation Scale (RASS) or a pre-specified reduction in BP and/or HR. The dosing rate was adjusted for subsequent cohorts based on the results of preceding cohorts. Continuous assessment was made of the level of arousal, BP and HR. […] Statistics were descriptive and correlational in terms of pharmacodynamic and pharmacokinetic relationships.
The participants in cohort 1 were designated by subject codes 11XX and 91XX, and those in cohort 2 were designated by subject codes 12XX. Time needed to resolve refers to the time from the cessation of the infusion to the resolution of the pharmacodynamic effect of the drug on either arousal or blood pressure and heart rate.

[5] = Opioid withdrawal Study
From the text: Additional Assessment Included: • 1. Hematological and blood chemistry, urinalysis • 2. Physical examination • 3. Standard of care detoxification treatment (ancillary medications) to alleviate symptoms of acute withdrawal to ensure safe discharge from study site. • 4. Adverse event reporting

[6] = human, in vivo
From the text: In addition, we assessed the following Secondary Objectives: • a. Determine how rapidly the drug can be administered up to the total dose needed to achieve RASS −1. • b. Determine how long the calming effect persists after discontinuation of study drug administration. • c. Determine whether any adverse effects on blood pressure, heart rate, or respiratory drive occurs before or coincident with the achievement of Primary Objective. Stopping rules for blood pressure and heart rate, indicating a clinically significant event, are: • 1. drop in systolic BP<90 mm of Hg. • 2. drop in diastolic BP<60 mm of Hg • 3. drop below 50 beats per minute
The participants were continuously monitored during the study by the site personnel, including monitoring blood pressure and heart rate. Intermittent electrocardiograms were taken from the start of the infusion through resolution of the sedation and/or any adverse effects on blood pressure or heart rate.
Return to baseline parameters is defined as BP falling within 15 mm of Hg of baseline reading prior to drug administration or HR falling within 10 beats per minute of baseline reading prior to drug administration.

## Cc1cccc([C@H](C)c2cnc[nH]2)c1C [dexmedetomidine hydrochloride]
Clinical [1]; Day 1 (printed Day −1), 01:15 Hr
  concentration at […]: 0.0753 ng/mL
Clinical [1]; Day 1 (printed Day −1), 01:30 Hr
  concentration at […]: 0.112 ng/mL
Clinical [1]; Day 2 (printed Day −2), 00:00 Hr
  concentration at 0 h: 0.00821 ng/mL
Clinical [1]; Day 2 (printed Day −2), 01:15 Hr
  concentration at […]: 0.14 ng/mL
Clinical [1]; Day 2 (printed Day −2), 01:30 Hr
  concentration at […]: 0.177 ng/mL
Clinical [1]; Day 2 (printed Day −2), 01:45 Hr
  concentration at […]: 0.288 ng/mL
Clinical [1]; Day 2 (printed Day −2), 02:00 Hr
  concentration at 2 h: 0.404 ng/mL
Clinical [2]
  Cmax: 0.0225 to 0.406 ng/mL
Clinical [2]; Patient 1, Treatment, 15 min of infusion
  concentration at 15 min: 0.0225 ng/mL
Clinical [2]; Patient 1, Treatment
  concentration at 30 min: 0.0147 ng/mL
Clinical [2]; Patient 4, Treatment
  concentration at 90 min: 0.0443 ng/mL
Clinical [2]; Patient 11, Treatment, 15 min
  concentration at 15 min: 0.041 ng/mL
Clinical [2]; Patient 11, Treatment
  concentration at 30 min: 0.0629 ng/mL
  concentration at 45 min: 0.124 ng/mL
  concentration at 60 min: 0.15 ng/mL
Clinical [2]; Patient 12, Treatment
  concentration at 30 min: 0.0449 ng/mL
  concentration at 45 min: 0.0505 ng/mL
  concentration at 60 min: 0.109 ng/mL
  concentration at 75 min: 0.159 ng/mL
  concentration at 90 min: 0.238 ng/mL
Clinical [2]; Patient 14, Treatment
  concentration at 30 min: 0.0527 ng/mL
  concentration at 45 min: 0.0465 ng/mL
  concentration at 60 min: 0.406 ng/mL
Clinical [2]; Patient 16, Treatment, 15 min
  concentration at 15 min: 0.00256 ng/mL
Clinical [2]; Patient 16, Treatment
  concentration at 30 min: 0.0156 ng/mL
  concentration at 45 min: 0.0412 ng/mL
  concentration at 60 min: 0.0679 ng/mL
  concentration at 75 min: 0.0723 ng/mL
Clinical [2]; Patient 17, Treatment, 15 min
  concentration at 15 min: 0.0159 ng/mL
Clinical [2]; Patient 17, Treatment
  concentration at 45 min: 0.0399 ng/mL
Clinical [2]; Patient 18, Treatment, 15 min
  concentration at 15 min: 0.0484 ng/mL
Clinical [2]; Patient 18, Treatment
  concentration at 30 min: 0.0545 ng/mL
[3]
  AE Term: Headache
[3]; headache
  AE Outcome: Recovered
  AE Relationship: Possibly Related
  AE Severity: Moderate
[4]; Example 1A
  time to mild sedation after starting the dose which produced the desired effect: ≤ 30 min
[4]; Example 1A, IV infusion 0.1-0.6 mcg/kg/hr
  subjects in whom mild sedation (RASS score of −1) was evident: 11/12
[4]; Healthy Volunteers Cohort 1
  Efficacy (Primary/secondary end points): subjects reaching RASS-1: 6/6 RASS-1
[4]; Healthy Volunteers Cohort 1, continuous infusion
  Range of efficacious dose of IV dexmedetomidine hydrochloride: 0.3 to 0.5 µg/kg/h
[4]; Healthy Volunteers Cohort 2
  Efficacy (Primary/secondary end points): subjects reaching RASS-1: 5/6 RASS-1
[4]; Healthy Volunteers Cohort 2, continuous infusion
  Range of efficacious dose of IV dexmedetomidine hydrochloride: 0.3 to 0.4 µg/kg/h
[4]; healthy elderly volunteers, per subject, endpoint/stopping criterion reached
  Endpoint: RASS −2; also recorded: RASS −1
[4]; healthy elderly volunteers, per subject, rate raised every 30 min
  IV infusion rate at which desired effect/stopping criteria achieved: 0.3 mcg/kg/hr (4×) and 0.4 mcg/kg/hr (7×) and 0.5 mcg/kg/hr
[4]; in vivo
  effects on blood pressure and/or heart rate at exposure achieving mild sedation: did not produce clinically meaningful effects on blood pressure and/or heart rate
  tolerability: well-tolerated
[4]; p<0.02, Sign test
  dose required by males compared to females: twice
[4]; results of cohorts 1 and 2
  optimal starting dose: 0.3 µg/kg/h
[5]
  adverse events: No adverse event was reported
[6]
  Hemodynamic effects: All
  adverse effect on blood pressure (systolic and diastolic) and heart rate: no adverse effect
  infusion time at which stopping criteria of <60 mm Hg was met: 135 min
